Measured values taken from US20220386606A1, “SPECIFICALLY SUBSTITUTED 3-PHENYL-5-SPIROCYCLOPENTYL-3-PYRROLIN-2-ONES AND THEIR USE AS HERBICIDES” (Bayer Aktiengesellschaft, priority 2019, published 2022).

Tests used:
ECHCG [1] = test: Pre-emergence herbicidal action against ECHCG; type: in vivo, Echinochloa crus-galli; settings: 320 g/ha, scored visually after 3 weeks vs untreated controls
How it was run: (§1)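 Sandy loam, wood-fiber pots, seeds covered with soil. Spray onto soil surface: aqueous WP/EC, 600 to 800 L/ha, 0.2% wetting agent. Greenhouse 3 weeks; visual % score vs untreated controls.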

LOLRI [2] = test: Pre-emergence herbicidal action against LOLRI (Table 8, titled post-emergence at 320 g/ha); type: in vivo, Lolium rigidum; settings: table stands in the pre-emergence section
How it was run: as §1

DIGSA [3] = test: Pre-emergence herbicidal action against DIGSA; type: in vivo, Digitaria sanguinalis; settings: 320 g/ha, scored visually after 3 weeks vs untreated controls
How it was run: as §1

DIGSA [4] = test: Post-emergence herbicidal action against DIGSA; type: in vivo, Digitaria sanguinalis; settings: 80 g/ha, visual assessment about 3 weeks after treatment vs untreated controls
How it was run: (§2)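 Weeds and crops grown in sandy loam in the greenhouse, treated post-emergence at the one-leaf stage (2–3 weeks after sowing). WP or EC formulations sprayed as aqueous suspension/emulsion at 600–800 l/ha water with 0.2% wetting agent. Visual % activity scored after about 3 weeks versus untreated controls (100% = dead, 0% = like control).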

ALOMY [5] = test: Post-emergence herbicidal action against ALOMY; type: in vivo, Alopecurus myosuroides; settings: 80 g/ha, visual assessment after about 3 weeks
How it was run: as §2

MATIN = test: Pre-emergence herbicidal action against MATIN; type: in vivo; settings: 320 g/ha
How it was run: as §1

LOLRI [6] = test: Post-emergence herbicidal action against LOLRI; type: in vivo, Lolium rigidum; settings: 80 g/ha, visual assessment about 3 weeks after treatment vs untreated controls
How it was run: as §2

VERPE = test: Pre-emergence herbicidal action against VERPE; type: in vivo, Veronica persica; settings: 320 g/ha
How it was run: as §1

VIOTR = test: Pre-emergence herbicidal action against VIOTR; type: in vivo, Viola tricolor; settings: 320 g/ha
How it was run: as §1

AMARE = test: Pre-emergence herbicidal action against AMARE; type: in vivo, Amaranthus retroflexus; settings: 320 g/ha
How it was run: as §1

SETVI [7] = test: Pre-emergence herbicidal action against SETVI; type: in vivo, Setaria viridis; settings: 320 g/ha, scored visually after 3 weeks vs untreated controls
How it was run: as §1

ECHCG [8] = test: Post-emergence herbicidal action against ECHCG; type: in vivo, Echinochloa crus-galli; settings: 80 g/ha, visual assessment about 3 weeks after treatment vs untreated controls
How it was run: as §2

AVEFA [9] = test: Pre-emergence herbicidal action against AVEFA; type: in vivo, Avena fatua; settings: 320 g/ha, scored visually after 3 weeks vs untreated controls
How it was run: as §1

SETVI [10] = test: Post-emergence herbicidal action against SETVI; type: in vivo, Setaria viridis; settings: 80 g/ha, visual assessment about 3 weeks after treatment vs untreated controls
How it was run: as §2

POLCO = test: Pre-emergence herbicidal action against POLCO; type: in vivo, Polygonum convolvulus; settings: 320 g/ha
From the text: Seeds of monocotyledonous and dicotyledonous weed plants and crop plants are laid out in sandy loam soil in wood-fiber pots and covered with soil. The compounds of the invention, formulated in the form of wettable powders (WP) or as emulsion concentrates (EC), are then applied to the surface of the covering soil as aqueous suspension or emulsion at a water application rate equating to 600 to 800 L/ha with addition of 0.2% wetting agent.
After the treatment, the pots are placed in a greenhouse and kept under good growth conditions for the trial plants. The damage to the test plants is scored visually after a test period of 3 weeks by comparison with untreated controls (herbicidal activity in percent (%): 100% activity=the plants have died, 0% activity=like control plants).

ALOMY [11] = test: Pre-emergence herbicidal action against ALOMY; type: in vivo, Alopecurus myosuroides; settings: 320 g/ha, scored visually after 3 weeks vs untreated controls
How it was run: as §1

AVEFA [12] = test: Post-emergence herbicidal action against AVEFA; type: in vivo, Avena fatua; settings: 80 g/ha, visual assessment after about 3 weeks
How it was run: as §2

HORMU = test: Post-emergence herbicidal action against HORMU; type: in vivo, Hordeum murinum; settings: 80 g/ha, visual assessment about 3 weeks after treatment vs untreated controls
Description: (§3) Seeds of monocotyledonous and dicotyledonous weed and crop plants are laid out in sandy loam soil in wood-fiber pots, covered with soil and cultivated in a greenhouse under good growth conditions. 2 to 3 weeks after sowing, the test plants are treated at the one-leaf stage. The compounds of the invention, formulated in the form of wettable powders (WP) or as emulsion concentrates (EC), are then sprayed onto the green parts of the plants as aqueous suspension or emulsion at a water application rate equating to 600 to 800 l/ha with addition of 0.2% wetting agent. After the test plants have been left to stand in the greenhouse under optimal growth conditions for about 3 weeks, the action of the preparations is assessed visually in comparison to untreated controls (herbicidal action in percent (%): 100% activity=the plants have died, 0% activity=like control plants).

ABUTH = test: Post-emergence herbicidal action against ABUTH; type: in vivo, Abutylon threophrasti; settings: 80 g/ha, visual assessment about 3 weeks after treatment vs untreated controls
Description: as §3

C#CCOCC1CCC2(C1)NC(=O)C(c1c(C)cc(C#CC)cc1Cl)=C2O (centres unmarked) [Example I-79]
Pre-emergence action against ECHCG in % (ECHCG [1]): 100%
Pre-emergence herbicidal action against LOLRI in % (LOLRI [2]): 100%
Pre-emergence action against DIGSA in % (DIGSA [3]): 100%
Post-emergence action against DIGSA in % (DIGSA [4]): 100%
Post-emergence action against ALOMY in % (ALOMY [5]): 90%
Pre-emergence action against MATIN in % (MATIN): 90%
Post-emergence action against LOLRI in % (LOLRI [6]): 100%
Pre-emergence action against VERPE in % (VERPE): 80%
Pre-emergence action against VIOTR in % (VIOTR): 100%
Pre-emergence action against AMARE in % (AMARE): 100%
Pre-emergence action against SETVI in % (SETVI [7]): 100%
Post-emergence action against ECHCG in % (ECHCG [8]): 100%
Pre-emergence action against AVEFA in % (AVEFA [9]): 100%
Post-emergence action against SETVI in % (SETVI [10]): 100%
Pre-emergence action against POLCO in % (POLCO): 90%
Pre-emergence action against ALOMY in % (ALOMY [11]): 100%
Post-emergence action against AVEFA in % (AVEFA [12]): 90%

CC#Cc1cc(C)c(C2=C(OC(=O)OCC)C3(CCC(COCC)C3)NC2=O)c(Cl)c1 (centres unmarked) [Example P-11]
Post-emergence action against DIGSA in % (DIGSA [4]): 100%
Post-emergence action against ALOMY in % (ALOMY [5]): 80%
Post-emergence action against LOLRI in % (LOLRI [6]): 100%
Post-emergence action against SETVI in % (SETVI [10]): 100%
Post-emergence action against HORMU in % (HORMU): 100%
Post-emergence action against AVEFA in % (AVEFA [12]): 100%

CC#Cc1cc(C)c(C2=C(OC(=O)C(C)C)C3(CCC(COC)C3)NC2=O)c(Br)c1 (centres unmarked) [Example P-33]
Pre-emergence action against ECHCG in % (ECHCG [1]): 100%
Pre-emergence herbicidal action against LOLRI in % (LOLRI [2]): 100%
Pre-emergence action against DIGSA in % (DIGSA [3]): 100%
Post-emergence action against DIGSA in % (DIGSA [4]): 100%
Post-emergence action against ALOMY in % (ALOMY [5]): 100%
Post-emergence action against LOLRI in % (LOLRI [6]): 100%
Pre-emergence action against VERPE in % (VERPE): 80%
Pre-emergence action against VIOTR in % (VIOTR): 100%
Pre-emergence action against AMARE in % (AMARE): 100%
Pre-emergence action against SETVI in % (SETVI [7]): 100%
Pre-emergence action against AVEFA in % (AVEFA [9]): 100%
Post-emergence action against SETVI in % (SETVI [10]): 100%
Pre-emergence action against POLCO in % (POLCO): 100%
Pre-emergence action against ALOMY in % (ALOMY [11]): 100%
Post-emergence action against ABUTH in % (ABUTH): 80%
Post-emergence action against AVEFA in % (AVEFA [12]): 90%

CC#Cc1cc(C)c(C2=C(OC(=O)C(C)C)C3(CCC(COCC)C3)NC2=O)c(OC)c1 (centres unmarked) [Example P-60]
Pre-emergence action against ECHCG in % (ECHCG [1]): 100%
Pre-emergence herbicidal action against LOLRI in % (LOLRI [2]): 100%
Pre-emergence action against DIGSA in % (DIGSA [3]): 100%
Post-emergence action against DIGSA in % (DIGSA [4]): 90%
Post-emergence action against ALOMY in % (ALOMY [5]): 100%
Pre-emergence action against MATIN in % (MATIN): 90%
Post-emergence action against LOLRI in % (LOLRI [6]): 100%
Pre-emergence action against VERPE in % (VERPE): 80%
Pre-emergence action against VIOTR in % (VIOTR): 100%
Pre-emergence action against AMARE in % (AMARE): 100%
Pre-emergence action against SETVI in % (SETVI [7]): 100%
Post-emergence action against ECHCG in % (ECHCG [8]): 100%
Pre-emergence action against AVEFA in % (AVEFA [9]): 100%
Post-emergence action against SETVI in % (SETVI [10]): 100%
Pre-emergence action against POLCO in % (POLCO): 80%
Pre-emergence action against ALOMY in % (ALOMY [11]): 100%
Post-emergence action against AVEFA in % (AVEFA [12]): 100%

CC#Cc1cc(C)c(C2=C(OC(=O)OCC)C3(CCC(COCCOC)C3)NC2=O)c(OC)c1 (centres unmarked) [Example P-80]
Pre-emergence action against ECHCG in % (ECHCG [1]): 100%
Pre-emergence herbicidal action against LOLRI in % (LOLRI [2]): 100%
Pre-emergence action against DIGSA in % (DIGSA [3]): 100%
Post-emergence action against DIGSA in % (DIGSA [4]): 90%
Post-emergence action against ALOMY in % (ALOMY [5]): 100%
Pre-emergence action against MATIN in % (MATIN): 90%
Post-emergence action against LOLRI in % (LOLRI [6]): 90%
Pre-emergence action against VERPE in % (VERPE): 100%
Pre-emergence action against VIOTR in % (VIOTR): 100%
Pre-emergence action against AMARE in % (AMARE): 90%
Pre-emergence action against SETVI in % (SETVI [7]): 100%
Post-emergence action against ECHCG in % (ECHCG [8]): 100%
Pre-emergence action against AVEFA in % (AVEFA [9]): 100%
Post-emergence action against SETVI in % (SETVI [10]): 100%
Pre-emergence action against POLCO in % (POLCO): 90%
Pre-emergence action against ALOMY in % (ALOMY [11]): 100%
Post-emergence action against AVEFA in % (AVEFA [12]): 90%

CC#Cc1cc(C)c(C2=C(OC(=O)OCC)C3(CCC(COCCC)C3)NC2=O)c(Cl)c1 (centres unmarked) [Example P-86]
Pre-emergence action against ECHCG in % (ECHCG [1]): 100%
Pre-emergence herbicidal action against LOLRI in % (LOLRI [2]): 100%
Pre-emergence action against DIGSA in % (DIGSA [3]): 100%
Post-emergence action against DIGSA in % (DIGSA [4]): 90%
Post-emergence action against ALOMY in % (ALOMY [5]): 90%
Pre-emergence action against MATIN in % (MATIN): 80%
Post-emergence action against LOLRI in % (LOLRI [6]): 100%
Pre-emergence action against VERPE in % (VERPE): 100%
Pre-emergence action against VIOTR in % (VIOTR): 100%
Pre-emergence action against AMARE in % (AMARE): 100%
Pre-emergence action against SETVI in % (SETVI [7]): 100%
Post-emergence action against ECHCG in % (ECHCG [8]): 100%
Pre-emergence action against AVEFA in % (AVEFA [9]): 80%
Post-emergence action against SETVI in % (SETVI [10]): 100%
Pre-emergence action against POLCO in % (POLCO): 90%
Pre-emergence action against ALOMY in % (ALOMY [11]): 100%
